From patent US12139487B2, “Compounds and uses thereof” (Foghorn Therapeutics Inc., priority 2022, dated 2024)
pIC50: −log10 of the molar value.

Columns and labels:
BRM = target: T1, BRM (Homo sapiens, UniProt P51531); experiment: ATPase catalytic activity assay (ADP-Glo), BRM; assay type: biochemical; settings: Table 10; for Ratio (BRG1 IC50 (μM) divided by BRM IC50 (μM)): ATPase assay, selectivity BRG1/BRM; for pIC50: ATPase catalytic activity assay (ADP-Glo)
T1 construct: made in house; host or cells: High Five insect cells
T1 sequence (P51531 whole entry): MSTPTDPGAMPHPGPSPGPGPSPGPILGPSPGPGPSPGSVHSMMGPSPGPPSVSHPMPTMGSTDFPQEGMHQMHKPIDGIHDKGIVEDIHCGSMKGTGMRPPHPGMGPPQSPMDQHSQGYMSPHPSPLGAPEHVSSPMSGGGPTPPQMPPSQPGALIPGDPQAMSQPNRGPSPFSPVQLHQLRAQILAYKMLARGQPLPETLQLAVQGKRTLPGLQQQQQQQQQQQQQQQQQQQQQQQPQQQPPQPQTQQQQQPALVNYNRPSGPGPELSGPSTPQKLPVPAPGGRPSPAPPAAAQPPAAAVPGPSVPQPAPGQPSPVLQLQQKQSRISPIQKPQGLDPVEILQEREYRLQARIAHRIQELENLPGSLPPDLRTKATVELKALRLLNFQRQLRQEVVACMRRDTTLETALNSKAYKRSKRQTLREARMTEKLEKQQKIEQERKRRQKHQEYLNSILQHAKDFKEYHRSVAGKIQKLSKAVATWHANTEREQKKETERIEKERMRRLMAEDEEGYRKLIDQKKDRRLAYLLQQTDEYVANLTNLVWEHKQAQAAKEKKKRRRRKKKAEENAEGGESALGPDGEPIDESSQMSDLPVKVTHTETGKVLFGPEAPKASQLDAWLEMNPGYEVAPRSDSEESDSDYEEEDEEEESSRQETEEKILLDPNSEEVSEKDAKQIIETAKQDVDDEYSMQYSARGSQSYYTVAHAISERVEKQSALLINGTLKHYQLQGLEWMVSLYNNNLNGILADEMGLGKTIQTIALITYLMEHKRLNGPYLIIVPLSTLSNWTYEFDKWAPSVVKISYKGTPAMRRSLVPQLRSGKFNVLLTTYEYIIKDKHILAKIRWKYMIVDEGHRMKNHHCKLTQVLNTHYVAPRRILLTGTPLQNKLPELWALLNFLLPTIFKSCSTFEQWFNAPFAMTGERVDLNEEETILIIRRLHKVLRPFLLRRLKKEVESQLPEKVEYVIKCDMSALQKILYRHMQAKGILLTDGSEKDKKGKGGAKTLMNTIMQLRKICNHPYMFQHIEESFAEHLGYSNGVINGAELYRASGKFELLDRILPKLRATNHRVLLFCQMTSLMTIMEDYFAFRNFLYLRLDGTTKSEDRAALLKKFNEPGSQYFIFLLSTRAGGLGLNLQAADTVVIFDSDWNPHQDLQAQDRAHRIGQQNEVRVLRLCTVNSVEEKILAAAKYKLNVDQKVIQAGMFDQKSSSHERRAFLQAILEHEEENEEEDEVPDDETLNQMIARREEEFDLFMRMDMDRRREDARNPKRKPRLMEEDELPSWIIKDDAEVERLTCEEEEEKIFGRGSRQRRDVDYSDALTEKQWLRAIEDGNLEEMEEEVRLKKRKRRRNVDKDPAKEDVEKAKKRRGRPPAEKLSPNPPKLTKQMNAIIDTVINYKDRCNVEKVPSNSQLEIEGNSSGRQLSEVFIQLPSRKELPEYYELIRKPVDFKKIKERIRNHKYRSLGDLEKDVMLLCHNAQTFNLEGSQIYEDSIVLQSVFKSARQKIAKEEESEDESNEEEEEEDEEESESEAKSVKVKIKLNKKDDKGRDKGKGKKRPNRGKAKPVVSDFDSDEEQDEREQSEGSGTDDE
Method in brief: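 ADP-Glo luminescence measures ADP produced by BRM ATPase (30 nM) during 1 h at room temperature. ATP is 400 μM, with 20 nM salmon sperm DNA as cofactor. Buffer: 20 mM Tris pH 8, 20 mM MgCl2, 50 mM NaCl, 0.1% Tween-20, 1 mM DTT.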

BRG-1 = target: T2, BRG-1 (Homo sapiens, UniProt P51532); experiment: ATPase catalytic activity assay (ADP-Glo), BRG-1; assay type: biochemical; settings: Table 10, read-out: BRG1 IC50
T2 construct: made in house; host or cells: High Five insect cells
T2 sequence (P51532 whole entry): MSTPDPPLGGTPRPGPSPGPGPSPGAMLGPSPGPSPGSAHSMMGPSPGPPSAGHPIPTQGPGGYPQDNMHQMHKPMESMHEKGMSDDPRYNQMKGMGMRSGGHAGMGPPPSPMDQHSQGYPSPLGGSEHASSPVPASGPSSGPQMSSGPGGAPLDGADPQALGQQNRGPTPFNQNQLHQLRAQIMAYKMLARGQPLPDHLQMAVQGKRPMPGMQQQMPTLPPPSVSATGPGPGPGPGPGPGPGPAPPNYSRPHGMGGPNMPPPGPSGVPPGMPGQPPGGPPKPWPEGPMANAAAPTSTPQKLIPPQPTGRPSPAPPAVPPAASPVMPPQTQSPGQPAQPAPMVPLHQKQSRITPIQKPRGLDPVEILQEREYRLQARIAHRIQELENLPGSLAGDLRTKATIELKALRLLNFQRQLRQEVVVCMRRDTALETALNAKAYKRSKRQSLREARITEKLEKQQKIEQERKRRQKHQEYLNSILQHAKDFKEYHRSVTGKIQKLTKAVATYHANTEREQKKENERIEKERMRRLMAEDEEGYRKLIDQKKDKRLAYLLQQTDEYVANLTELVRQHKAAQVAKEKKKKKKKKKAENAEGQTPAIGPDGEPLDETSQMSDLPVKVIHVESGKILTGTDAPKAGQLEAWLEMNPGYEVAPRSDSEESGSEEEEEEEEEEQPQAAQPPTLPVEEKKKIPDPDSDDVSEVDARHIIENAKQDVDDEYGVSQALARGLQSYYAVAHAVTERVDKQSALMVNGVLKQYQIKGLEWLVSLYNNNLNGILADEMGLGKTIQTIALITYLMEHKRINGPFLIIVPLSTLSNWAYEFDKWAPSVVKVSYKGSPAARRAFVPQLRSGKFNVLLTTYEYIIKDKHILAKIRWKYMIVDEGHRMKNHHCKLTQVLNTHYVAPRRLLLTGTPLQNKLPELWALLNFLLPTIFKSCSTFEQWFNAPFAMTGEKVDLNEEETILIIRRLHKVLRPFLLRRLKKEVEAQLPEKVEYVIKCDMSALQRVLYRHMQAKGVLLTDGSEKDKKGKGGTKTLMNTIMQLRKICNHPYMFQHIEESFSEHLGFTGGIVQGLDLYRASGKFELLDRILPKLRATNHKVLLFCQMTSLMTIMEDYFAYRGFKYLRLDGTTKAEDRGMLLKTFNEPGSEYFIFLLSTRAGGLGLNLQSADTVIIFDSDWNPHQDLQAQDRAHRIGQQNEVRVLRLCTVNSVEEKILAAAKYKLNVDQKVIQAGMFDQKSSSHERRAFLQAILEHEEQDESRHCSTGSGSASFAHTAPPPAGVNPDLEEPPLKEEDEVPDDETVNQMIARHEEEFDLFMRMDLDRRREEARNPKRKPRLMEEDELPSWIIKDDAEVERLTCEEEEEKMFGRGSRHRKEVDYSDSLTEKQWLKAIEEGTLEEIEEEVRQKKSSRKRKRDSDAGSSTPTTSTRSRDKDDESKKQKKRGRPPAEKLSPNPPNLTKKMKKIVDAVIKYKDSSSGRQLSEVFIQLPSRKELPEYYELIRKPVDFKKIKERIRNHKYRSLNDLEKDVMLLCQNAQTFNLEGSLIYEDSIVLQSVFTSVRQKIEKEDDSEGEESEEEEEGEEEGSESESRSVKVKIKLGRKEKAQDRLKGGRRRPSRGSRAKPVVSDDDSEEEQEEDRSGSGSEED
Method in brief: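 Luminescence read-out: ADP formed by BRG-1 ATPase is converted to ATP and detected by luciferase. Residual ATP is first removed with ADP-Glo Reagent for 40 min at RT; detection reagent is then incubated 60 min at RT before reading.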

Row | Ratio (BRG1 IC50 (μM) divided by BRM IC50 (μM)) (BRM) | pIC50 (BRM) | pIC50 (BRG-1) | Compound
1 | 19.61 | 8.04 | 7.05 | O=C(NCc1cc2nc(N3CCOc4ccc([C@H]5C[C@H]5F)nc43)ccc2cn1)c1cc(F)c2c(c1)S(=O)(=O)[C@@H](F)CCO2 [Compound 277]
2 | 9.67 | 8.04 | 7.12 | C[C@H](NC(=O)c1cc(F)c2c(c1)S(=O)(=O)[C@@H](F)COC2)c1cc2nc(N3CCOc4cc(C5CC5)cnc43)ccc2cn1 [Compound 278]
3 | 18.19 | 8.04 | 6.78 | O=C(NCc1cc2nc(N3CCOc4ccc([C@H](F)CF)nc43)ccc2cn1)c1cc(F)c2c(c1)S(=O)(=O)[C@@H](F)CCO2 [Compound 279]
4 | 11.58 | 8.04 | 6.97 | COc1ccc(-c2ccc3cnc(CNC(=O)c4cc(F)c5c(c4)S(=O)(=O)[C@@H](F)COC5)cc3n2)nc1[C@H]1CC1(F)F [Compound 280]
5 | 10.16 | 8.03 | 7.03 | C#Cc1cnc2c(c1)OCCN2c1ccc2cnc(CNC(=O)c3cc(F)c4c(c3)S(=O)(=O)[C@@H](F)CCO4)cc2n1 [Compound 281]
6 | 17.58 | 8.03 | 6.79 | O=C(NCc1cc2nc(N3CCOc4cc(F)cnc43)ccc2cn1)c1cc(F)c2c(c1)S(=O)(=O)[C@@H](F)CCO2 [Compound 282]
7 | 28.86 | 8.03 | 6.41 | O=C(NCc1cc2cc(-c3cncc(C4CCC4)n3)ccc2cn1)c1cc(F)c2c(c1)S(=O)(=O)[C@@H](F)CCO2 [Compound 283]
8 | 11.05 | 8.02 | 6.98 | C[C@@H]1CN(c2cnc3c(c2)OCCN3c2ccc3cnc(CNC(=O)c4cc(F)c5c(c4)S(=O)(=O)[C@@H](F)CCO5)cc3n2)C[C@@H]1F [Compound 284]
9 | 9.97 | 8.02 | 7.02 | O=C(NCc1cc2nc(N3CCOc4c(N5CC(F)C5)ccnc43)ccc2cn1)c1cc(F)c2c(c1)S(=O)(=O)[C@@H](F)CCO2 [Compound 285]
10 | 20.51 | 8.02 | 6.71 | O=C(NCc1cc2nc(N3CCOc4cc(N5CCC[C@H](F)C5)cnc43)ccc2cn1)c1cc(F)c2c(c1)S(=O)(=O)[C@@H](F)CCO2 [Compound 286]
11 | 11.77 | 8.02 | 6.95 | COc1nc([C@H](F)C(F)F)ccc1-c1ccc2cnc(CNC(=O)c3cc(F)c4c(c3)S(=O)(=O)[C@@H](F)CCO4)cc2n1 [Compound 287]
12 | 26.09 | 8.02 | 6.69 | COc1nscc1-c1ccc2cnc(CNC(=O)c3cc(F)c4c(c3)S(=O)(=O)[C@@H](F)CCO4)cc2n1 [Compound 288]
13 | 11.49 | 8.02 | 6.94 | C[C@@H]1CCN1c1cnc2c(c1)OCCN2c1ccc2cnc(CNC(=O)c3cc(Cl)c4c(c3)S(=O)(=O)[C@@H](F)COC4)cc2n1 [Compound 289]
14 | 17.27 | 8.02 | 6.73 | O=C(NCc1cc2nc(-c3ccnc(C45CC(C4)C5)n3)ccc2cn1)c1cc(F)c2c(c1)S(=O)(=O)[C@@H](F)COC2 [Compound 290]
15 | 23.12 | 8.01 | 6.65 | COc1nc(CC(F)F)ccc1-c1ccc2cnc(CNC(=O)c3cc(F)c4c(c3)S(=O)(=O)[C@@H](F)CCO4)cc2n1 [Compound 292]
16 | 17.20 | 8.01 | 6.77 | O=C(NCc1cc2nc(N3CCCc4cc(C5COC5)cnc43)ccc2cn1)c1cc(F)c2c(c1)S(=O)(=O)[C@@H](F)CCO2 [Compound 293]
17 | 35.16 | 8.01 | 6.46 | COc1ccc(-c2ccc3cnc(CNC(=O)c4cc(Cl)c5c(c4)S(=O)(=O)[C@@H](F)COC5)cc3n2)nc1[C@@H]1CC1(F)F [Compound 294]
18 | 16.68 | 8.01 | 6.76 | COCCOc1nccc2c1CCCN2c1ccc2cnc(CNC(=O)c3cc(F)c4c(c3)S(=O)(=O)[C@@H](F)CCO4)cc2n1 [Compound 295]
19 | 11.58 | 8.00 | 6.94 | CN(C)c1ccnc2c1OCCN2c1ccc2cnc(CNC(=O)c3cc(F)c4c(c3)S(=O)(=O)[C@@H](F)CCO4)cc2n1 [Compound 296]
20 | 29.64 | 8.00 | 6.57 | O=C(NCc1cc2nc(-c3cccc(OC(F)F)c3)ccc2cn1)c1cc(F)c2c(c1)S(=O)(=O)[C@@H](F)COC2 [Compound 297, (2R)—N-[[2-[3-(difluoromethoxy)phenyl]-1,6-naphthyridin-7-yl]methyl]-2,6-difluoro-1,1-dioxo-3,5-dihydro-2H-4,1λ6-benzoxathiepine-8-carboxamide]

Row | Ratio (BRG1 IC50 (μM) divided by BRM IC50 (μM)) (BRM) | pIC50 (BRM) | pIC50 (BRG-1) | Compound
21 | 14.40 | 8.00 | 6.85 | COc1nc([C@@H](F)C(F)F)ccc1-c1ccc2cnc(CNC(=O)c3cc(F)c4c(c3)S(=O)(=O)[C@@H](F)CCO4)cc2n1 [Compound 298]
22 | 29.29 | 8.00 | 6.53 | C[C@@H]1CCN1c1cnc2c(c1)OCCN2c1ccc2cnc(CNC(=O)c3cc(Br)c4c(c3)S(=O)(=O)[C@@H](F)CCO4)cc2n1 [Compound 299]
23 | 11.89 | 8.00 | 6.93 | C[C@H]1C[C@H]1c1cnc2c(c1)OCCN2c1ccc2cnc(CNC(=O)c3cc(F)c4c(c3)S(=O)(=O)[C@@H](F)CCO4)cc2n1 [Compound 300]
24 | 18.66 | 8.00 | 6.76 | COc1nc(-c2ccc3cnc(CNC(=O)c4cc(Cl)c5c(c4)S(=O)(=O)[C@@H](F)COC5)cc3n2)ccc1C(F)F [Compound 301]
25 | 30.11 | 8.00 | 6.46 | O=C(NCc1cc2nc(-c3cccc(C4CC4)n3)ccc2cn1)c1cc(Cl)c2c(c1)S(=O)(=O)[C@@H](F)COC2 [Compound 302]
26 | 10.70 | 8.00 | 6.97 | O=C(NCc1cc2cc(N3CCOc4cc(C(F)F)cnc43)ccc2cn1)c1cc(F)c2c(c1)S(=O)(=O)[C@@H](F)CCO2 [Compound 303]
27 | 15.65 | 8.00 | 6.80 | O=C(NCc1cc2nc(N3CCOc4cc(F)c(C(F)F)nc43)ccc2cn1)c1cc(F)c2c(c1)S(=O)(=O)[C@@H](F)CCO2 [Compound 304]
28 | 12.14 | 7.99 | 6.90 | COc1cnc2c(c1)CCCN2c1ccc2cnc(CNC(=O)c3cc(F)c4c(c3)S(=O)(=O)[C@@H](F)CCO4)cc2c1 [Compound 305]
29 | 32.74 | 7.99 | 6.44 | COc1nc(C(F)F)ccc1-c1ccc2cnc(CNC(=O)c3cc(Cl)c4c(c3)S(=O)(=O)[C@@H](F)CCO4)cc2n1 [Compound 306]
30 | 20.42 | 7.98 | 6.79 | O=C(NCc1cc2nc(-c3cccc(OC(F)(F)F)n3)ccc2cn1)c1cc(F)c2c(c1)S(=O)(=O)[C@@H](F)COC2 [Compound 307]
31 | 28.69 | 7.98 | 6.48 | COc1nc([C@H](C)F)ccc1-c1ccc2cnc(CNC(=O)c3cc(Cl)c4c(c3)S(=O)(=O)[C@@H](F)CCO4)cc2n1 [Compound 308]
32 | 11.01 | 7.98 | 6.94 | O=C(NCc1cc2nc(N3CCOc4cc(C#CC5CC5)cnc43)ccc2cn1)c1cc(F)c2c(c1)S(=O)(=O)[C@@H](F)COC2 [Compound 309]
33 | 36.05 | 7.89 | 6.26 | CCOc1ccc(-c2ccc3cnc(CNC(=O)c4cc(F)c5c(c4)S(=O)(=O)[C@@H](F)CCO5)cc3n2)nc1[C@H]1CC1(F)F [Compound 313]
34 | 43.60 | 7.60 | 5.96 | C#Cc1cc(C(=O)NCc2cc3nc(-c4cccc(N5C[C@@H](C)O[C@@H](C)C5)n4)ccc3cn2)cc2c1OCC[C@@H](F)S2(=O)=O [Compound 315]
35 | 17.77 | 7.74 | 6.49 | C[C@@H]1CN(c2cccc(-c3ccc4cnc(CNC(=O)c5cc(OC(F)F)c6c(c5)S(=O)(=O)[C@@H](F)CCO6)cc4n3)n2)C[C@H](C)O1 [Compound 316]
36 | 8.51 | 7.91 | 6.98 | C[C@@H]1CN(c2cccc(-c3ccc4cnc(CNC(=O)c5ccc6c(c5)S(=O)(=O)[C@@H](F)CCN6C)cc4n3)n2)C[C@H](C)O1 [Compound 318]
37 | 25.94 | 6.72 | 5.30 | C[C@@H]1CN(c2cccc(-c3ccc4cnc(CNC(=O)c5ccc6c(c5)S(=O)(=O)[C@H](F)CCN6C)cc4n3)n2)C[C@H](C)O1 [Compound 319]
38 | 30.39 | 7.49 | 5.93 | COc1cccc(-c2ccc3cnc(CNC(=O)c4cc(Cl)c5c(c4)S(=O)(=O)[C@@H](F)CCO5)cc3n2)n1 [Compound 322]
39 | 13.90 | 7.93 | 6.79 | O=C(NCc1cc2nc(N3CCOc4cc(N5CC[C@H]5CF)cnc43)ccc2cn1)c1cc(Br)c2c(c1)S(=O)(=O)[C@@H](F)CCO2 [Compound 323]
